How the values were obtained:
human IRAK-4 = target: T1, human IRAK-4 (Homo sapiens, UniProt Q9NWZ3); test: Phosphorylation IC50 determination for human IRAK-4 (ADP-Glo kinase assay); settings: human IRAK-4, RIP140 substrate, Km ATP; read-out: IRAK4 ADPglo biochemical assay IC50
T1 construct: purchased Carna Biosciences 09 145
T1 sequence (Q9NWZ3 1-460): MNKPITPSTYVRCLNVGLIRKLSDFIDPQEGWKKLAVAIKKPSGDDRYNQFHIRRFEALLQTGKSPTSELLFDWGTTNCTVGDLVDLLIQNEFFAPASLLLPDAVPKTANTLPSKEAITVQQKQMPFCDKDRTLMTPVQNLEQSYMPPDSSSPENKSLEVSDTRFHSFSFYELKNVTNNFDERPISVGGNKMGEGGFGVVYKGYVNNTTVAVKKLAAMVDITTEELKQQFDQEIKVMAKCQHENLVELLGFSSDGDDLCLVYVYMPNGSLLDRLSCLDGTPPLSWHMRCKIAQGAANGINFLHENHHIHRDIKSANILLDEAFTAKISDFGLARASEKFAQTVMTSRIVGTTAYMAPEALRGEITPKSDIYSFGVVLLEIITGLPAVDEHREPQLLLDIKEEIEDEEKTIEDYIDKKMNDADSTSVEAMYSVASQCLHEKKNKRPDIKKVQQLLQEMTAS
Method: 3.1. Phosphorylation IC50 Determination for Human IRAK-4
The phosphorylation of the substrate RIP140 (SEQ ID1) by IRAK4 at Km ATP was detected with the ADP-Glo Kinase Assay (Promega, Cat #V9103), a luminescent kinase assay which measures the ADP formed from a kinase reaction. (Zegzouti et al. 2009) In a second step the kinase reaction was terminated and all the remaining ATP was depleted. In a final step the ADP was converted into ATP and this newly synthesized ATP was measured by using a luciferase/luciferin reaction with a luminescent reader. The luminescent signal positively correlated with kinase activity, in particular kinase inhibition giving a decrease of the luminescent signal.
For the semi-automated assay, the positive control (100% inhibition) was prepared by diluting 10 mM staurosporine stock mixture (20 μL) in water (3.8 mL) and DMSO (180 μL), thus resulting in a […] staurosporine solution at 1% DMSO (final concentration after further dilution in the kinase reaction).
For the automated assay, no pre-dilution of the 10 mM staurosporine stock was made. 10 mM staurosporine was spotted directly in the assay plate using acoustic dispensing and complemented with DMSO to result in a similar final concentration as mentioned above.
For the semi-automated assay, the negative control (0% inhibition) was prepared by mixing water (3.8 mL) and DMSO (200 μL) resulting in a final concentration of 1% DMSO after further dilution in the kinase reaction. For the automated assay no pre-dilution of DMSO was done. 100% DMSO was spotted directly on the assay plate.
The assay buffer solution was prepared at a concentration corresponding to 5 fold the final (most diluted) assay concentration by mixing a solution of 125 mM TRIS pH 7.5+0.05% Triton X-100+2.5 mM EGTA (5.27 mL) with 1M mgCl2 (72 μL), 1M DTT (57.6 μL), and 200 mM MnCl2 (360 μL).
For example, for the semi-automated method, the enzyme-substrate mixture was prepared by mixing water (3999 μL), assay buffer solution (1380 μL), 1 mM RIP140 (138 μL—SEQ ID1), and 200 ng/mL IRAK 4 (3.45 μL Carna Biosciences, 09 145).
For semi-automated method, the ATP mixture was prepared at a concentration corresponding to 2.5 fold the final (most diluted) assay concentration of the semi-automated method and 1.5 fold the final (most diluted) assay concentration of the automated method. For example, for the semi-automated method, the ATP mixture was prepared by mixing water (4126 μL), assay buffer solution (1380 μL), and 10 mM ATP (13.80 μL).
The assay was performed either in a semi-automated or fully automated manner. The assay volume and the incubation time of the ADP detection were different accordingly the method used.
3.1.3.1. Semi-Automated Assay
The compounds were prepared as a serial dilution of 10 point dose responses with 1/5 dilution steps in 100% DMSO starting from 2 mM highest concentration, diluted 1/20 in water. 1 μL was transferred dry to the assay plates.
On each assay plate 32 wells of each control (positive & negative) were added, followed by 2 μL enzyme-substrate mixture.
The reaction was started by adding 2 μL diluted ATP (final concentration Km ATP) on the assay plates. Plates were centrifuged for a few seconds at 1000 rpm followed by an incubation at r.t. for 120 min.
The reactions were stopped and the unconsumed ATP was depleted by adding 5 μL ADP-glo Reagent (Promega, Cat #V9103) to the reaction. The plates were quickly centrifuged at 1000 rpm and incubated at r.t. for 40 min corresponding to full ATP depletion.
The ADP was converted back to ATP and luciferase and luciferin were introduced to detect ATP by adding 10 μL kinase detection reagent (Promega, Cat #V9103) to the reaction. The plates were centrifuged for a few seconds at 1000 rpm and incubated at r.t. for a further 30 min.
Luminescent read out was performed on an Envision luminescent reader (Perkin Elmer). […]

[1] = tested on: pooled cryopreserved hepatocytes; test: Metabolic stability in hepatocytes (human); format: in vitro ADME; settings: 1 μM test compound
Method: 4.6. Metabolic Stability in Hepatocytes
The aim of this assay is to determine the metabolic stability of the compound in hepatocytes (cryopreserved) of different species. Low hepatocyte stability may result in the formation of unwanted metabolites, high clearance, and therefore is not desirable.
The decrease in parent was assessed by measuring the percentage remaining by LC-MS/MS analysis.
A 10 mM stock solution of test compound in DMSO was first diluted in DMSO to 3 mM, and then in modified Krebs-Henseleit buffer (Sigma, K3753) to 5 μM. This compound dilution was added to a suspension of pooled cryopreserved hepatocytes (BioreclamationIVT) at 37° C. under gentle shaking.
Final reaction conditions were: 1 μM of test compound, 0.03% DMSO, 0.5 million viable hepatocytes/mL, and 75 μL incubation volume.
Testosterone (1 μM) and 7-hydroxycoumarin (1 μM) were used, respectively as phase I and phase II metabolic reaction controls.
After 0, 10, 20, 45, 90, 120 and 180 min of incubation, the reaction was terminated with 225 μL of MeCN:MeOH (2:1) containing 100 ng/mL of diclofenac as analytical internal standard. Samples were mixed, centrifuged and the supernatant analyzed by LC-MS/MS.
The instrument responses (ratios of test compound and internal standard peak areas) were referenced to the zero time point samples (considered as 100%) in order to determine the percentage of compound remaining.
Plots of percentage compound remaining are used to determine the intrinsic clearance in the hepatocyte incubations using the following equations:
Scaled Clint[L/h/kg]=Clint[μL/min/10^6 cells]*#(10^6) cells/g liver*60*(1/10^6) Scaled Clint unbound [L/h/kg]=Clint [L/h/kg]/Fu,inc where: fu,inc equals hepatocyte binding, derived from microsomal binding (fu,mic) by following equation: […]

IC50 (human IRAK-4) [nM]	Human (Perc. remaining at 90 min) [1] [%]	Compound
0.1 to 5	99.9	CNC(=O)c1cc2nc(CCC(C)(C)O)cn2cc1NC(=O)c1cccc(C(F)(F)F)n1 [Compound 2, 2-(3-hydroxy-3-methyl-butyl)-N-methyl-6-[[6-(trifluoromethyl)pyridine-2-carbonyl]amino]imidazo[1,2-a]pyridine-7-carboxamide]
0.1 to 5	94.55	COc1cc2nc(CCC(C)(C)O)cn2cc1NC(=O)c1cccc(C(F)(F)F)n1 [Compound 3, N-[2-(3-hydroxy-3-methyl-butyl)-7-methoxy-imidazo[1,2-a]pyridin-6-yl]-6-(trifluoromethyl)pyridine-2-carboxamide]
0.1 to 5	30.3	COc1cc2nc(CCC(C)(C)O)cn2cc1NC(=O)c1cccc(C)n1 [Compound 6, N-[2-(3-hydroxy-3-methyl-butyl)-7-methoxy-imidazo[1,2-a]pyridin-6-yl]-6-methyl-pyridine-2-carboxamide]
0.1 to 5	78.4	COc1cc2nc(CCC(C)(C)O)cn2cc1NC(=O)c1cccc(C(F)F)n1 [Compound 7, 6-(difluoromethyl)-N-[2-(3-hydroxy-3-methyl-butyl)-7-methoxy-imidazo[1,2-a]pyridin-6-yl]pyridine-2-carboxamide]
0.1 to 5	75.55	COc1cc2nc(CCC(C)(C)O)cn2cc1NC(=O)c1cccc(C(C)(F)F)n1 [Compound 20, 6-(1,1-difluoroethyl)-N-[2-(3-hydroxy-3-methyl-butyl)-7-methoxy-imidazo[1,2-a]pyridin-6-yl]pyridine-2-carboxamide]
0.1 to 5	73.6	COc1cc2nc(CCS(C)(=O)=O)cn2cc1NC(=O)c1cccc(C(F)(F)F)n1 [Compound 24, N-[7-methoxy-2-(2-methylsulfonylethyl)imidazo[1,2-a]pyridin-6-yl]-6-(trifluoromethyl)pyridine-2-carboxamide]

Continued, compound first:

Compound	IC50 (human IRAK-4) [nM]	Human (Perc. remaining at 90 min) [1] [%]
[2H]C([2H])([2H])NC(=O)c1cc2nc(CCC(C)(C)O)cn2cc1NC(=O)c1cccc(C(F)(F)F)n1 [Compound 1, 2-(3-hydroxy-3-methyl-butyl)-N-(trideuteriomethyl)-6-[[6-(trifluoromethyl)pyridine-2-carbonyl]amino]imidazo[1,2-a]pyridine-7-carboxamide]	0.1 to 5	96.4
COc1cc2nc(CCC(C)(C)O)cn2cc1NC(=O)c1cccn(C)c1=O [Compound 4, N-[2-(3-hydroxy-3-methyl-butyl)-7-methoxy-imidazo[1,2-a]pyridin-6-yl]-1-methyl-2-oxo-pyridine-3-carboxamide]	5 to 10	99.7
COc1cc2nc(CCC(C)(C)O)cn2cc1NC(=O)c1cccn(C2CC2)c1=O [Compound 5, 1-cyclopropyl-N-[2-(3-hydroxy-3-methyl-butyl)-7-methoxy-imidazo[1,2-a]pyridin-6-yl]-2-oxo-pyridine-3-carboxamide]	0.1 to 5	95.6
COc1cccc(C(=O)Nc2cn3cc(CCC(C)(C)O)nc3cc2OC)n1 [Compound 8, N-[2-(3-hydroxy-3-methyl-butyl)-7-methoxy-imidazo[1,2-a]pyridin-6-yl]-6-methoxy-pyridine-2-carboxamide]	0.1 to 5	78.4
COc1cc2nc(CCC(C)(C)O)cn2cc1NC(=O)c1cccn(C(F)F)c1=O [Compound 12, 1-(difluoromethyl)-N-[2-(3-hydroxy-3-methyl-butyl)-7-methoxy-imidazo[1,2-a]pyridin-6-yl]-2-oxo-pyridine-3-carboxamide]	5 to 10	100.7
COc1cc2nc(CCC(C)(C)O)cn2cc1NC(=O)c1cccn(CC(F)(F)F)c1=O [Compound 13, N-[2-(3-hydroxy-3-methyl-butyl)-7-methoxy-imidazo[1,2-a]pyridin-6-yl]-2-oxo-1-(2,2,2-trifluoroethyl)pyridine-3-carboxamide]	> 50	105.95
COc1cc2nc(CCC(C)(C)O)cn2cc1NC(=O)c1cccn(C2CCC2)c1=O [Compound 18, 1-cyclobutyl-N-[2-(3-hydroxy-3-methyl-butyl)-7-methoxy-imidazo[1,2-a]pyridin-6-yl]-2-oxo-pyridine-3-carboxamide]	0.1 to 5	93.95
CCn1cccc(C(=O)Nc2cn3cc(CCC(C)(C)O)nc3cc2OC)c1=O [Compound 23, 1-ethyl-N-[2-(3-hydroxy-3-methyl-butyl)-7-methoxy-imidazo[1,2-a]pyridin-6-yl]-2-oxo-pyridine-3-carboxamide]	5 to 10	91.45
CCOc1c(NC(=O)c2cccn(C)c2=O)cn2cc(CCC(C)(C)O)nc2c1F [Compound 38, N-[7-ethoxy-8-fluoro-2-(3-hydroxy-3-methyl-butyl)imidazo[1,2-a]pyridin-6-yl]-1-methyl-2-oxo-pyridine-3-carboxamide]	5 to 10	–
CCOc1c(NC(=O)c2cccn(C3CC3)c2=O)cn2cc(CCS(C)(=O)=O)nc2c1F [Compound 39, 1-cyclopropyl-N-[7-ethoxy-8-fluoro-2-(2-methylsulfonylethyl)imidazo[1,2-a]pyridin-6-yl]-2-oxo-pyridine-3-carboxamide]	5 to 10	–

— patent US20220194938A1, “NOVEL COMPOUNDS AND PHARMACEUTICAL COMPOSITIONS THEREOF FOR THE TREATMENT OF INFLAMMATORY DISORDERS” (GALAPAGOS NV, priority 2019, published 2022)
